Values joined by “and” are separate entries in the source; they are usually repeats but may differ in a detail not shown here. Identical values can stand only once. “Also recorded” adds a separate entry of the source.
Key:
VDAC3 in HT1080 cells = assay: Drug sensitivity after shRNA knockdown of VDAC3; type: cell-based, human; settings: shRNAs targeting VDAC3, alamar blue
Description: (§1) On day one, 3×10^5 Calu-1 cells or 2×10^5 HT1080 cells were seeded in 10-cm dishes; on day 2, frozen virus stock was thawed at 37° C., hexadimethrine bromide (polybrene) (Sigma, cat.#H9268) was added to the virus solution at a final concentration of 8 μg/mL and growth media from cell culture was replaced with the virus/polybrene mixture. The culture was returned to the tissue culture incubator for 2 hours, with rocking of the dishes every 30 min in order to prevent drying. After 2 h, 10 mL growth medium was added, the culture was incubated for 2 days, and cells stably expressing shRNA were selected by adding puromycin (Sigma, cat.#P9620) at a final concentration of 1.5 μg/mL.
(§2) On the day of experiment, assay plates were prepared by seeding 3,000 HT1080, HT1080-pLKO, HT1080-TfR1 KD, Calu-1, Calu-1-pLKO, or Calu-1-509 cells per well in 36 μL of growth media to black, clear bottom 384-well plates. Also, assay plates were prepared by seeding 1,500 shRNA infected HT1080 or Calu-1 cells per well. Cells in assay plates were treated with each lethal compound in a 2-fold dilution series by transferring 4 μL solution from a 10× lethal plate of Erastin, Compound 3, Compound 27, or Compound 36. […] Percent growth inhibition (% GI) was calculated using fluorescence intensity values.

[1] = test system: BJeH, BJeHLT, BJeLR and DRD cells; assay: Cell growth inhibition by stereoisomers of Compound 27; settings: Homo sapiens
[2] = test system: 60 different human cancer cell lines (the NCI60 panel); assay: NCI60 anti-cancer screening, whole panel; type: cell-based
Description: NCI60 anti-cancer screening (“NCI60 test”) is a system that provides an opportunity to assess a drug candidate's potency and selectivity at a relatively early stage of drug discovery. […] Such compounds would be expected to kill sensitive cancer cells while having minimal effect on healthy cells in a predetermined concentration range. NCI60 anti-cancer screening makes use of 60 cancer cell lines from different human tissue origins. Cells are seeded on a 96-well plate, treated with lethal compounds in 5-point, 10-fold dilution series pattern starting at 100 μM (i.e. 10 nM, 100 nM, 1 μM, 10 μM, 100 μM) for 2 days, and measured for cell viability using sulforhodamine B dye. The optical densities of treated samples are determined using a plate reader and percent growth value is calculated by processing the optical density value.
The entire NCI60 test is replicated at least twice to ensure consistency of the data and to determine accurate GI50, TGI and LC50 values. The panel of results for each candidate compound in the NCI60 test is known as the “sensitivity profile.”

mice = assay: Maximum tolerated dose in mice; type: in vivo; settings: single intraperitoneal injection at 100, 200 or 400 mg/kg
Description: (§3) The maximum tolerated dose of Compound 27 was tested in mice.
(§4) Each mouse in the study was administered a single intraperitoneal injection of Compound 27 dissolved in sterile PBS at 100 mg/kg, 200 mg/kg, or 400 mg/kg.

[3] = Maximum tolerated dose in mice; type: in vivo; settings: mouse, in vivo, ip, single intraperitoneal injection in sterile PBS
Description: as §3, §4

HT1080 cells = assay: Alamar blue assay with bioactive suppressors in HT1080; type: cell-based, human; settings: 150 μM DFOM, 10 μM U0126, 50 μM SU6656, or 100 μM Vitamin E
Description: as §2

SF-295 = assay: NCI60 anti-cancer screening; settings: for GI50 / CC50: Homo sapiens; for GI50 / GI 100%: SF-295; for CC50: SF-295, read-out: LC 50%; for GI 100%: CNS Cancer
[4] = test system: Calu-1 cells expressing shRNAs targeting HRAS, NRAS or KRAS; assay: Drug sensitivity after shRNA knockdown of RAS; type: cell-based, human; settings: alamar blue
Description: as §1, §2

HT1080-TfR1KD cells = assay: Drug sensitivity after shRNA knockdown of TfR1; type: cell-based, human; settings: alamar blue
Description: as §1, §2

HOP-62 = assay: NCI60 anti-cancer screening; type: cell-based; settings: Non-small cell lung carcinoma
[5] = test system: BJ-TERT/LT/ST/RAS^V12 cells; assay: Effect of cell cycle inhibitors on Compound 36-induced cell death; type: cell-based, human; settings: apigenin, monastrol, olomoucine, nocodazole, hydroxyurea, colchicine, rapamycin
Description: BJ-TERT/LT/ST/RAS^V12 cells were seeded in a 384-well assay plate at a concentration of 4,000 cells per well in 32 μL culture volume. Cells were treated with cell cycle inhibitors by transferring 4 μL of 500 μM apigenin (Sigma, cat.#A3145), 1.5 mM monastrol (Sigma, cat.#M8515), 1 mM olomoucine (Sigma, cat.#00886), 2 μM Nocodazole (Sigma, cat.#M1404), 6 mM Hydroxy-urea (Sigma, cat.#H8627), 0.1 μM colchicine (Sigma, cat.#D6165), or 50 μM Rapamycine (Sigma, cat.#RO395) in growth media to the assay plate. […] The assay plate was incubated for 24 hours and alamar blue was added to the assay plate at a final concentration of 10%.

| SMILES | effect of VDAC3 knockdown on compound-induced cell death (VDAC3 in HT1080 cells) | EC50 [1] | difference in sensitivity between resistant and sensitive cell lines [2] | potency / selectivity in NCI60 (in words) [2] | mortality (mice) | MTD [3] [mg/kg] | treatments that inhibit compound-induced cell death in HT1080 cells (HT1080 cells) | GI50 (SF-295) [µM] | CC50 (SF-295) [µM] | GI 100% (SF-295) [µM] | sensitivity of Calu-1 cells after RAS shRNA compared with parental cells [4] | sensitivity of HT1080-TfR1KD cells compared with parental HT1080 (HT1080-TfR1KD cells) | GI50 (HOP-62; Homo sapiens) [µM] | LC50 (HOP-62; Homo sapiens) [µM] | GI 100% (HOP-62) [µM] | effect of cell cycle blockers on compound-induced cell death [5] |
| --- | --- | --- | --- | --- | --- | --- | --- | --- | --- | --- | --- | --- | --- | --- | --- | --- |
| COC(=O)c1ccc(C2c3[nH]c4ccccc4c3CC(C(=O)OC)N2C(=O)CCl)cc1 (stereo not drawn) [Compound 27] | not affected | ~0.05 µg/mL and ~100 nM | up to 10^4 fold | nanomolar (nM) concentration range | None of the mice died | > 400 | iron chelators, MEK inhibitors or non-receptor tyrosine kinase inhibitors effectively inhibited | 1.1 | 8.06 | 2.97 | more resistant; also recorded: less effective |  |  |  |  |  |
| COCCOC(=O)C1=C(C)NC2=C(C(=O)CC(c3ccc(Cl)cc3)C2)C1c1ccccc1F (stereo not drawn) [Compound 3] | suppressed |  |  |  |  |  |  |  |  |  |  | decreased sensitivity |  |  |  |  |
| C=C1CCC2C(C)(C)CCC[C@]2(C)C1CC/C(C)=C\CC/C(C)=N/NC(N)=S (stereo partly drawn) [Compound 36] |  |  |  |  |  |  |  | 1.19 | 5.33 | 2.52 |  | decreased sensitivity | 0.405 | 3.77 | 1.42 | None of cell cycle blockers were effective |

Reference: patent US8546421B1, “Oncogenic-RAS-signal dependent lethal compounds” (The Trustees of Columbia University in the City of New York, priority 2007, dated 2013)
